Reference: patent US8546340B2, “Soothing pharmaceutical or cosmetic composition comprising a peptide that activates HMG-CoA reductase” (ISP Investments Inc., priority 2008, dated 2013)
No end group written: not given here.

Columns and labels:
HMG-CoA reductase = experiment: Expression of HMG-CoA reductase in normal human keratinocytes (immunofluorescence); assay type: cell-based; conditions: peptide 0.5 ppm (1% of 50 ppm stock), 24 or 48 hours
Method: Protocol: Normal human keratinocytes in culture are treated with a 1% stock solution at 50 ppm of peptide SEQ ID No. 5 for 24 or 48 hours (the medium in the presence of the active ingredient is changed every 24 hours). The cells are then washed and fixed in cold methanol for 4 minutes at 4° C. The cells are incubated in the presence of a polyclonal rabbit antibody specific for HMG-CoA reductase (Millipore, Upstate), and then a secondary antibody coupled with a fluorescent dye. The cells are then examined by epifluorescence microscope (Nikon Eclipse E600 microscope).

interleukin-1 alpha = experiment: Ex vivo IL-1 alpha secretion by human skin biopsies (ELISA); assay type: cell-based; conditions: peptide 0.5 ppm 24 h, vs controls untreated by the peptide
Method: Protocol: 5 mm-diameter biopsies of human skin are maintained in culture at the air-liquid interface in the presence of standard culture medium. The samples are treated with a 1% dilution of a solution at 50 ppm of peptide SEQ ID No. 5 for 24 hours, and then irradiated by UVB radiation (200 mJ/cm^2) and put back in culture for 24 hours, or subjected to contact with SDS at 2.5% for 24 hours in the presence of the same concentration of peptide SEQ ID No. 5. Controls untreated by the peptide are carried out under the same conditions. At the end of the experiment, the quantity of interleukin-1 alpha salted out in the culture medium is assayed by the ELISA technique.

What does the source list for “Ala-Gly-Glu-Leu-Ser-NH2 (AGELS-NH2) [Peptide SEQ ID No. 5]”?
expression of HMG-CoA reductase (cytoplasmic fluorescence, microscopic observation) (HMG-CoA reductase): more intense cytoplasmic fluorescence; reduction of quantity of IL-1 alpha salted out in culture medium (interleukin-1 alpha; SDS 2.5% for 24 hours with peptide): 58%; reduction of quantity of IL-1 alpha salted out in culture medium (interleukin-1 alpha; UVB 200 mJ/cm^2, then 24 h culture): 40%
